Reference: patent EP2098223A1, “Compressed solid dosage form” (Teva Pharmaceutical Industries Ltd., priority 2004, dated 2006)
Counter-ions that a name gives are not always drawn.

Assay: Particle size distribution by laser light scattering (Malvern Mastersizer S)
Type: physicochemical
Settings: mean equivalent spherical diameter; raloxifene hydrochloride used in Formulations 1-4
Description: For example, in Formulations 1-4 below, d(0.5) = 38.8 µm and d(0.9) = 90.4 µm. All particle sizes herein refer to the mean equivalent spherical diameter measured by laser light scattering techniques. Thus, the notation "d(0.5) greater than about 35 µm" means that 50% of the particles by volume have a mean equivalent spherical diameter of more than about 35 µm, as measured by laser light scattering. The laser light scattering measurement instrument used to measure the particle size distributions in the Examples was a Malvern Mastersizer® S. The dissolution profile was generated by testing in either 900 mL or 2 L of a 0.1 % aqueous polysorbate 80 solution, using paddle apparatus (USP Apparatus II) at 50 rpm at 37°C.

## O=C(c1ccc(OCCN2CCCCC2)cc1)c1c(-c2ccc(O)cc2)sc2cc(O)ccc12 [raloxifene hydrochloride]
  d(0.5): 38.8 µm
  d(0.9): 90.4 µm
